The values below come from patent US20240148747A1, “SMALL MOLECULE ACTIVATORS OF YAP TRANSCRIPTIONAL ACTIVITY FOR REGENERATIVE ORGAN REPAIR” (THE SCRIPPS RESEARCH INSTITUTE, priority 2021, published 2024).

Structures are written as SMILES. Where two headings read alike, the source gives them in different places. Bounds are passed on as bounds.

In one data set the test system is YAP. Nature of the data set: TEAD-LUC activation assay (293A-TEAD-LUC reporter). It counts as cell-based. The conditions noted are these: Homo sapiens, read-out: TEAD-LUC activation assay EC50.
Data set [1] can be described thus: Cytotoxicity in the TEAD-LUC activation assay. The conditions noted are these: human.

In general, EC50 refers to the concentration at which the effect is half-maximal. For orientation: IC50 means the concentration needed to halve the response being measured. A higher IC50 goes with lower potency.

From the text for YAP: More specifically, we used a 293A cell line harboring a stably integrated cassette containing 8 copies of the TEAD binding element upstream of luciferase (8xGTII-LUC). These cells retain responsiveness to contact inhibition-induced decreases in YAP transcriptional output.^6 The TEAD-responsive reporter assay (called 293A-TEAD-LUC throughout) was adapted to 1536-well format and then used to screen a library of ˜738k compounds for YAP-inducing activity.
Additional compounds of the present disclosure were subjected to the assay described above.

`O=C(NCCCn1ccnn1)c1cc(-c2ccc(Cl)cc2)on1` [Compound 81]: the 50% effective concentration (EC50) in the data set with YAP (Table 3) was greater than 20 µM. Further, the concentration for half-maximal inhibition (IC50) in data set [1] is greater than 20 µM.
`Cc1ccc(NCCCNC(=O)c2cc(-c3ccccc3)on2)nc1` [Compound 131]: the EC50 in the data set on YAP (Table 4) turned out to be 2.88 µM. The compound also gave an IC50 in data set [1] greater than 20 µM.
For `O=C(NCCCCn1cccc1)c1cc(-c2ccccc2)on1` [Compound 12], the EC50 in the data set on YAP (Table 3) stood at 1.88 µM. The compound further gave an IC50 in data set [1] greater than 20 µM.
Consider `O=C(NCCCc1nccs1)c1cn2ccccc2n1` [Compound 35], for which the concentration giving a half-maximal response (EC50) with YAP (Table 3) is greater than 20 µM. In data set [1], this compound registered a half-maximal inhibitory concentration (IC50) greater than 20 µM.
`Cc1cncc(C(=O)NCCCc2nccs2)c1` [Compound 96]: the EC50 in the data set with YAP (Table 3) was greater than 20 µM. In data set [1], this compound had an IC50 greater than 20 µM.
Take `O=C(NCCCc1nccs1)c1cc(C(F)(F)F)ncn1` [Compound 105]: the EC50 with YAP (Table 3) was greater than 20 µM. Besides, the IC50 in data set [1] was greater than 20 µM.
As for `O=C(NCCCN1CCOCC1)c1cc(-c2ccc(F)cc2)on1` [Compound 135], the EC50 with YAP (Table 4) is greater than 20 µM. The same compound displayed an IC50 in data set [1] greater than 20 µM.
On to `CC(C)(C)OC(=O)NCCNC(=O)c1cc(-c2ccccc2)on1` [Compound 59], for which the EC50 with YAP (Table 3) stood at 3.58 µM. The IC50 in data set [1] is greater than 20 µM.
Take `COc1ccc(OC)c(-c2cc(C(=O)NCCc3nc(C)cs3)no2)c1` [Compound 130]: the EC50 in the data set with YAP (Table 4) was greater than 20 µM. In data set [1], the IC50 was greater than 20 µM.
`O=C(NCCCc1nccs1)c1cncc(C(F)(F)F)c1` [Compound 92]: the EC50 with YAP (Table 3) is greater than 20 µM. Also, in data set [1], the IC50 was greater than 20 µM.
`CC(=O)N1CCN(CCCNC(=O)c2cc(-c3ccccc3)on2)CC1` [Compound 36]: the EC50 in the data set with YAP (Table 3) was determined as 4.36 µM. In data set [1], the concentration for half-maximal inhibition (IC50) was greater than 20 µM.
Take `O=C(NCCCc1nccs1)c1cc(-c2c(F)cccc2F)on1` [Compound 94]: in the data set with YAP (Table 3), the EC50 is 1 µM. This compound also yielded a half-maximal inhibitory concentration (IC50) in data set [1] greater than 20 µM.
In the case of `CN1CCN(CCCNC(=O)c2cc(-c3ccccc3)on2)CC1` [Compound 127, N-[3-(4-methylpiperazin-1-yl)propyl]-5-phenyl-1,2-oxazole-3-carboxamide], the 50% effective concentration (EC50) with YAP (Table 4) turned out to be 2.68 µM. Moreover, in data set [1], the half-maximal inhibitory concentration (IC50) is greater than 20 µM.
Consider `O=C(NCCCNc1ccccc1)c1cc(-c2ccccc2)on1` [Compound 6], for which the EC50 in the data set with YAP (Table 3) was 0.91 µM. The same compound gave an IC50 in data set [1] greater than 20 µM.
Take `O=C(NCCCn1cccc1)c1n[nH]c2ccccc12` [Compound 101]: in the data set on YAP (Table 3), the EC50 is greater than 20 µM. This compound also registered an IC50 in data set [1] greater than 20 µM.
For the compound `O=C(NCCCn1ccnn1)c1cc(-c2cccc(F)c2)on1` [Compound 74], the EC50 with YAP (Table 3) stood at 15 µM. Moreover, the IC50 in data set [1] is greater than 20 µM.
As to `Cc1ccc(C2CCCN2C(=O)c2cc(-c3ccc4c(c3)OCO4)on2)cc1` (stereo not shown) [Compound 108], in the data set on YAP (Table 4), the EC50 was greater than 20 µM. This compound came in with an IC50 in data set [1] greater than 20 µM.
Regarding `CN1CCN(CCNC(=O)c2cc(-c3ccccc3)on2)CC1` [Compound 128], in the data set on YAP (Table 4), the EC50 was determined as 6.04 µM. The same compound showed an IC50 in data set [1] greater than 20 µM.
As to `C[C@@H](NC(=O)c1cc(-c2ccccc2)on1)c1ccccc1` [Compound 62], in the data set with YAP (Table 3), the EC50 is greater than 20 µM. The half-maximal inhibitory concentration (IC50) in data set [1] was greater than 20 µM.
Turning to `O=C(c1cc(-c2ccccc2)on1)N1CCCN(c2cccnn2)CC1` [Compound 140], the EC50 in the data set on YAP (Table 4) is greater than 20 µM. Moreover, the IC50 in data set [1] is greater than 20 µM.
As for `O=C(NCCCn1ccnn1)c1n[nH]c2ccccc12` [Compound 97], the EC50 in the data set on YAP (Table 3) was greater than 20 µM. The compound also yielded a concentration for half-maximal inhibition (IC50) in data set [1] greater than 20 µM.
Take `O=C(NCCCc1nccs1)c1ncoc1-c1ccccc1` [Compound 87]: the EC50 with YAP (Table 3) was greater than 20 µM. This compound displayed an IC50 in data set [1] greater than 20 µM.
In the case of `Cc1ccc(C(=O)NC2CCN(C(=O)c3cc(-c4ccccc4)on3)CC2)o1` [Compound 132], the EC50 in the data set on YAP (Table 4) is greater than 20 µM. Also, in data set [1], the IC50 is greater than 20 µM.
As for `O=C(NCCn1cccc1)c1n[nH]c2ccccc12` [Compound 93], the EC50 in the data set on YAP (Table 3) was greater than 20 µM. For the same compound, the IC50 in data set [1] is greater than 20 µM.
Take `O=C(NCCCN1CCOCC1)c1cc(-c2ccc(Cl)cc2)on1` [Compound 134]: the EC50 in the data set with YAP (Table 4) is greater than 20 µM. For the same compound, in data set [1], the IC50 was greater than 20 µM.
Consider `O=C(NCCCc1nccs1)c1noc(-c2ccccc2)n1` [Compound 103], for which the EC50 in the data set on YAP (Table 3) was greater than 20 µM. Moreover, the half-inhibitory concentration (IC50) in data set [1] is greater than 20 µM.
As for `O=C(NCCCN1CCOCC1)c1cc(-c2ccccc2)on1` [Compound 112], the EC50 with YAP (Table 4) was determined as 6.71 µM. The compound also gave an IC50 in data set [1] greater than 20 µM.
On to `O=C(NC12CC(C(F)(F)F)(C1)C2)c1cc(-c2ccccc2)on1` [Compound 56], for which the EC50 in the data set with YAP (Table 3) was greater than 20 µM. The compound also registered an IC50 in data set [1] greater than 20 µM.
For the compound `O=C(NCCCn1cccc1)c1cc(-c2cccc(F)c2)on1` [Compound 9], in the data set on YAP (Table 3), the EC50 is greater than 20 µM. For the same compound, in data set [1], the concentration for half-maximal inhibition (IC50) is greater than 20 µM.
With `O=C(NCCCn1ccnn1)c1cc(-c2ccccc2)on1` [Compound 14], the EC50 in the data set on YAP (Table 3) was 1.93 µM. In data set [1], this compound displayed an IC50 greater than 20 µM.
The like results for `O=C(Nc1cccc(-c2nccs2)c1)c1cc(-c2ccccc2)on1` [Compound 37] were, in that order, 15 µM and greater than 20 µM.
On the same counts, the results for `O=C(NCC(F)(F)F)c1cc(-c2ccccc2)on1` [Compound 63] are 7.58 µM and greater than 20 µM.
In the case of `O=C(c1cc(-c2ccccc2)on1)N1CCC(c2nc3ccccc3s2)CC1` [Compound 138], the EC50 in the data set on YAP (Table 4) was greater than 20 µM. Moreover, the IC50 in data set [1] was greater than 20 µM.
With `CCN(CC)CCCNC(=O)c1cc(-c2ccc(Cl)cc2)on1` [Compound 117], in the data set with YAP (Table 4), the EC50 was greater than 20 µM. This compound also registered an IC50 in data set [1] greater than 20 µM.
With `CN(CC(F)F)C(=O)c1cc(-c2ccccc2)on1` [Compound 60], the EC50 in the data set on YAP (Table 3) is greater than 20 µM. The IC50 in data set [1] worked out at 12 µM.
On the same counts, the results for `NC(=O)c1ccc(-c2cc(C(=O)NCCCc3nccs3)no2)cc1` [Compound 32] are greater than 20 µM and greater than 20 µM.
`CCCN1C(=O)CCc2cc(NC(=O)c3ccn(CC)n3)ccc21` [Compound 149]: the EC50 with YAP (Table 4) came to 3 µM. This compound registered an IC50 in data set [1] greater than 20 µM.
The like results for `CC(=O)Nc1cccc(NC(=O)c2cc(-c3ccccc3)on2)c1` [Compound 123] were, in that order, greater than 20 µM and greater than 20 µM.
On to `CN(CCCNC(=O)c1cc(-c2ccccc2)on1)S(C)(=O)=O` [Compound 24], for which the EC50 with YAP (Table 3) was found to be 2.76 µM. For the same compound, the IC50 in data set [1] was greater than 20 µM.
On the same counts, the results for `O=C(NCCCn1ccnn1)c1cc(-c2cccnc2)on1` [Compound 78] are greater than 20 µM and greater than 20 µM.
Regarding `O=C(NCCCN1CCOCC1)c1cc(-c2ccc(Cl)c(Cl)c2)on1` [Compound 120], in the data set with YAP (Table 4), the EC50 is greater than 20 µM. The IC50 in data set [1] is greater than 20 µM.
Turning to `CCc1cccc(NC(=O)C2CCN(C(=O)c3cc(-c4ccncc4)[nH]n3)CC2)c1` [Compound 155], the EC50 in the data set on YAP (Table 4) was 5 µM. Besides, the IC50 in data set [1] is greater than 20 µM.
The like results for `O=C(NCCCn1ccnc1)c1cc(-c2ccccc2)on1` [Compound 114] were, in that order, 2.97 µM and greater than 20 µM.
On to `O=C(NCCCn1ccnn1)c1cc(-c2ccc(OC(F)(F)F)cc2)on1` [Compound 77], for which, in the data set on YAP (Table 3), the EC50 is greater than 20 µM. Further, in data set [1], the IC50 is greater than 20 µM.
For the compound `O=C(NCCCn1ccnn1)c1cc(-c2ccccc2F)on1` [Compound 71], the EC50 in the data set on YAP (Table 3) worked out at 5 µM. This compound also registered an IC50 in data set [1] greater than 20 µM.
With `O=C(Nc1cccc(N2CCOC2=O)c1)c1cc(-c2ccccc2)on1` [Compound 144], the EC50 in the data set with YAP (Table 4) came out at 10 µM. In data set [1], this compound gave an IC50 greater than 20 µM.
With `CC(CNC(=O)c1cc(-c2ccccc2)on1)c1ccc(Cl)cc1` (stereo not shown) [Compound 64], the EC50 in the data set on YAP (Table 3) is greater than 20 µM. This compound also had an IC50 in data set [1] greater than 20 µM.
